The conditions of data set [1]: cited from earlier work.
Data set [2] has as its target T1, human HERG K+ channel (Homo sapiens, UniProt Q12809).
Protocol: (§1) Adherent HEK293 cells expressing human HERG, were grown in MEM Earles medium (Life Technologies) supplemented with 10% foetal calf serum (PAA Laboratories), 2 mM L-glutamine (Sigma), 1 mM sodium pyruvate (Sigma), 0.4 mg/ml G418 (Life Technologies) and an addition of 1× non-essential amino acids (Life Technologies). The cells were grown at 37° C. in a humidified atmosphere with 5% CO2 in T225 cm^3 flasks.
(§2) All cells were pelleted, washed twice with PBS and snap-frozen on dry ice prior to storage at −80° C. until required.
(§3) Cell membrane fractions were prepared from frozen aliquots of cells. All procedures were carried out at 4° C. unless otherwise stated. Frozen aliquots of cells were thawed at room temperature and resuspended in homogenisation buffer (50 mM Tris base, 10 mM KCl, 1-1.2 mM MgCl2, pH 7.4). The cells were then disrupted by homogenisation in an Omni LabTek homogeniser at 20,000 rpm for 30 seconds. The homogenate was centrifuged for 20 minutes at 48,000×g (4° C., Sorvall RC5B centrifuge) and the supernatant removed. […] Protein content was determined using a Coomassie Blue based protein assay kit. […]
In each experiment, triplicate assays were routinely performed and the data were averaged. Specific binding was analysed by nonliiear regression fit using GraphPad Prism software (GraphPad, San Diego). […]
In data set [3] the target is T1, human HERG K+ channel. The source holds these as a separate data set.
Protocol: as §1, §2, §3
The scintillation proximity assay (SPA) was carried out under identical buffer conditions to those used in the filtration assay. […] Beads were allowed to settle for a minimum of 30 minutes before plates were counted for retained radioactivity on a TopCount NTX scintillation counter.

Consider two compounds from patent publication US20050214870A1, “Assay” (priority 2001, published 2005).

The structures appear in SMILES notation.

T1 sequence (Q12809 whole entry): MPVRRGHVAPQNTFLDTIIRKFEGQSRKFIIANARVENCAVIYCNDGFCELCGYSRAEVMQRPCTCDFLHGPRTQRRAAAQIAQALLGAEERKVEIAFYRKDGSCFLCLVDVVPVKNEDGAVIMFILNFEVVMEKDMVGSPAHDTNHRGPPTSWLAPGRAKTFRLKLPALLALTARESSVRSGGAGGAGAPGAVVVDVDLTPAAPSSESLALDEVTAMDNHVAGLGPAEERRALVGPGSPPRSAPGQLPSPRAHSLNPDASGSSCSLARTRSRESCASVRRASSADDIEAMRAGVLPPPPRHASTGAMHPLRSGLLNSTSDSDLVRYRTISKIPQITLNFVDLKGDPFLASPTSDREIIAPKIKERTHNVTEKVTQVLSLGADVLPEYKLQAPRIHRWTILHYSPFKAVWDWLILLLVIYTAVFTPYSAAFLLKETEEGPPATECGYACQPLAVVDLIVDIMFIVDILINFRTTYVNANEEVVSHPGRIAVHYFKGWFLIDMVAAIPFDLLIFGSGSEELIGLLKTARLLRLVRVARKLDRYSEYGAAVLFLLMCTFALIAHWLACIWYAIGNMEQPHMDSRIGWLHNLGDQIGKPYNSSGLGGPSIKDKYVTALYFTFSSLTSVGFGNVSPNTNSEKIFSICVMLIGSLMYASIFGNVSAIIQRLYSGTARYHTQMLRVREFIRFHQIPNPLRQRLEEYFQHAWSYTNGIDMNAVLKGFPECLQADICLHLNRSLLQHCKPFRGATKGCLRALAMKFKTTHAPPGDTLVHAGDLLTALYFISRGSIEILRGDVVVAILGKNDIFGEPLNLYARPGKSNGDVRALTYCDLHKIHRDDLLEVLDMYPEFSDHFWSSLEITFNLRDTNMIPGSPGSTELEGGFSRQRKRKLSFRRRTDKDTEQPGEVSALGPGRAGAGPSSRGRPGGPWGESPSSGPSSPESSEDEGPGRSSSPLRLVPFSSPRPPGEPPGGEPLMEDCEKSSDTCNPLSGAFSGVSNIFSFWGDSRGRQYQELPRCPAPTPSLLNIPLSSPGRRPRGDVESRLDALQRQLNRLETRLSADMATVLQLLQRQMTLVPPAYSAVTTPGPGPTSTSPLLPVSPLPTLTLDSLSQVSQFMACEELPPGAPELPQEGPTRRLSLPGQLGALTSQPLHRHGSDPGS

`COc1cc(N)c(Cl)cc1C(=O)NC1CCN(CCCOc2ccc(F)cc2)CC1OC` (stereo not shown) [Cisapride]: the “effect on QT interval of the electrocardiogram in man” value in data set [1] is given as “prolong the QT interval”.
Consider `CC(C)NC[C@@H](O)c1ccc(NS(C)(=O)=O)cc1` [D-Sotalol], for which the “Filter binding pKi” value in data set [2] is less than 5. For the same compound, in data set [3], the “SPA 96 pKi” value was less than 5 and the “SPA 384 pKi” value is recorded as less than 5.
